Test results: patent US20180282281A1, “IMMUNOREGULATORY AGENTS” (FLEXUS BIOSCIENCES, INC., priority 2014, published 2018)
pIC50: −log10 of the molar value.

Each compound was assayed against T1, human IDO1 (Homo sapiens, UniProt P14902) (assay: HEK293 human IDO1 cell-based IDO inhibition assay). Conditions: read-out: HEK Human IDO-1 Potency.
T1 construct: expressed in transfected cells
Description: 1HEK293 cells were transfected with a pCDNA-based mammalian expression vector harboring human IDO1 cDNA (NM 002164.2) by electroporation. They were cultured in medium (DMEM with 10% FBS) containing 1 mg/ml G418 for two weeks. Clones of HEK293 cells that stably expressed human IDO1 protein were selected and expanded for IDO inhibition assay.
The human IDOL/HEK293 cells were seeded at 10,000 cells per 50 μL per well with RPMI/phenol red free media contains 10% FBS in a 384-well black wall clear bottom tissue culture plate (Matrix Technologies LLC) 100 nL of certain concentration of compound was then added to each well using ECHO liquid handling systems. The cells were incubated for 20 hours in 37° C. incubator with 5% CO2.
The compound treatments were stopped by adding Trichloroacetic Acid (Sigma-Aldrich) to a final concentration at 0.2%. The cell plate was further incubated at 50° C. for 30 minute. The equal volume supernatant (20 μL) and 0.2% (w/v) Ehrlich reagent (4-dimethylaminobenzaldehyde, Sigma-Aldrich) in glacial acetic acid were mixed in a new clear bottom 384-well plate. This plate was then incubated at room temperature for 30 minute. The absorbance at 490 nm was measured on Envision plate reader.

T1 sequence (P14902 whole entry): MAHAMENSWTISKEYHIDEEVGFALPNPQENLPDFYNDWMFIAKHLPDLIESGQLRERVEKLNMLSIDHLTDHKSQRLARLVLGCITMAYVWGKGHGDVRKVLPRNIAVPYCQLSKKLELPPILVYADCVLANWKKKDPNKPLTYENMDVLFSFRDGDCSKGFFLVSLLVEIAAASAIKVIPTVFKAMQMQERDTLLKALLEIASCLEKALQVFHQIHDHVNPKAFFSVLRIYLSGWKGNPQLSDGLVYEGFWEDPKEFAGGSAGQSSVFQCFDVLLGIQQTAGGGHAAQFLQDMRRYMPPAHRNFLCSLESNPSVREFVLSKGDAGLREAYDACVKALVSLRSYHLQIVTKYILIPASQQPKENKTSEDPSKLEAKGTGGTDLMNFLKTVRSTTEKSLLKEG

Row | Compound | pIC50
1 | COC(=O)c1ccc(NC(=O)[C@H](C)[C@H]2CC[C@@H](c3ccnc4ccc(F)cc43)CC2)cc1 [Example 68, methyl 4-((R)-2-((cis)-4-(6-fluoroquinolin-4-yl)cyclohexyl)propanamido)benzoate] | > 7.30
2 | C[C@@H](C(=O)Nc1cccc(C(F)(F)F)c1)[C@H]1CC[C@@H](c2ccnc3ccc(F)cc32)CC1 [Example 70, (R)-2-((cis)-4-(6-fluoroquinolin-4-yl)cyclohexyl)-N-(3-(trifluoromethyl)phenyl)propanamide] | > 7.30
3 | C[C@@H](C(=O)Nc1ccc(Oc2ccccc2)cc1)[C@H]1CC[C@@H](c2ccnc3ccc(F)cc32)CC1 [Example 71, (R)-2-((cis)-4-(6-fluoroquinolin-4-yl)cyclohexyl)-N-(4-phenoxyphenyl)propanamide] | > 7.30
4 | C[C@@H](C(=O)Nc1ccncc1)[C@H]1CC[C@@H](c2ccnc3ccc(F)cc32)CC1 [Example 74, (R)-2-((cis)-4-(6-fluoroquinolin-4-yl)cyclohexyl)-N-(pyridin-4-yl)propanamide] | > 7.30
5 | C[C@@H](C(=O)Nc1cccnc1)[C@H]1CC[C@@H](c2ccnc3ccc(F)cc32)CC1 [Example 76, (R)-2-((cis)-4-(6-fluoroquinolin-4-yl)cyclohexyl)-N-(pyridin-3-yl)propanamide] | > 7.30
6 | CCOc1ccc(NC(=O)[C@H](C)[C@H]2CC[C@@H](c3ccnc4ccc(F)cc43)CC2)cc1 [Example 78, (R)-N-(4-ethoxyphenyl)-2-((cis)-4-(6-fluoroquinolin-4-yl)cyclohexyl)propanamide] | > 7.30
7 | Cc1ccc(NC(=O)[C@H](C)[C@H]2CC[C@@H](c3ccnc4ccc(F)cc43)CC2)cc1Cl [Example 80, (R)-N-(3-chloro-4-methylphenyl)-2-((cis)-4-(6-fluoroquinolin-4-yl)cyclohexyl)propanamide] | > 7.30
8 | C[C@@H](C(=O)Nc1ccc(C(F)(F)F)c(C#N)c1)[C@H]1CC[C@@H](c2ccnc3ccc(F)cc32)CC1 [Example 82, (R)—N-(3-Cyano-4-(trifluoromethyl)phenyl)-2-((cis)-4-(6-fluoroquinolin-4-yl)cyclohexyl)propanamide] | > 6.60
9 | CCC(C(=O)Nc1ccc(Cl)cc1)[C@H]1CC[C@H](Oc2ccnc3c(C(F)(F)F)cccc23)CC1 (stereo partly drawn) [Example 86, N-(4-Chlorophenyl)-2-((trans)-4-((8-(trifluoromethyl)quinolin-4-yl)oxy)cyclohexyl)butanamide] | > 7.30
10 | O=C(CN1CCC(Oc2ccnc3ccc(F)cc23)CC1)Nc1ccc(Cl)cc1 [Example 95, N-(4-Chlorophenyl)-2-(4-((6-fluoroquinolin-4-yl)oxy)piperidin-1-yl)acetamide] | > 6.60
11 | O=C(CC1CCN(Cc2ccnc3ccccc23)CC1)Nc1ccc(F)cc1 [Example 114, N-(4-Fluorophenyl)-2-(1-(quinolin-4-ylmethyl)piperidin-4-yl)acetamide] | > 6.60
12 | O=C(CC1CCN(c2ccnc3ccc(F)cc23)CC1)Nc1ccc(Br)cc1 [Example 117] | < 6.60
13 | Cc1ccc(NC(=O)CC2CCN(c3ccnc4ccc(F)cc34)CC2)c(F)c1 [Example 118] | < 6.60
14 | Cc1cc(Cl)ccc1NC(=O)CC1CCN(c2ccnc3ccc(F)cc23)CC1 [Example 119] | < 6.60
15 | Cc1ccc(NC(=O)CC2(C)CCN(c3ccnc4ccc(F)cc34)CC2)cc1 [Example 121] | < 6.60
16 | CC1(CC(=O)Nc2cncnc2)CCN(c2ccnc3ccc(F)cc23)CC1 [Example 122] | < 6.60
17 | COc1ncc(NC(=O)CC2(C)CCN(c3ccnc4ccc(F)cc34)CC2)cn1 [Example 124] | < 6.60
18 | CC(C(=O)O)c1ccc(C[C@@H](C(=O)Nc2ccc(C#N)cc2)[C@H]2CC[C@@H](c3ccnc4ccc(F)cc43)CC2)cc1 (stereo partly drawn) [Example 140, 2-(4-((R)-3-((4-Cyanophenyl)amino)-2-((cis)-4-(6-fluoroquinolin-4-yl)cyclohexyl)-3-oxopropyl)phenyl)propanoic Acid] | > 7.30

The next lines start with the values.

Row | pIC50 | Compound
19 | > 7.30 | COC(=O)c1cccc(NC(=O)[C@H](C)[C@H]2CC[C@@H](c3ccnc4ccc(F)cc43)CC2)c1 [Example 67, methyl 3-((R)-2-((cis)-4-(6-fluoroquinolin-4-yl)cyclohexyl)propanamido)benzoate]
20 | < 6.60 | C[C@@H](C(=O)N(C)c1ccccc1)[C@H]1CC[C@@H](c2ccnc3ccc(F)cc32)CC1 [Example 69, (R)-2-((cis)-4-(6-fluoroquinolin-4-yl)cyclohexyl)-N-methyl-N-phenylpropanamide]
21 | > 7.30 | Cc1cccc(NC(=O)[C@H](C)[C@H]2CC[C@@H](c3ccnc4ccc(F)cc43)CC2)c1 [Example 72, (R)-2-((cis)-4-(6-fluoroquinolin-4-yl)cyclohexyl)-N-(m-tolyl)propanamide]
22 | > 6.60 | C[C@@H](C(=O)Nc1cccc(Oc2ccccc2)c1)[C@H]1CC[C@@H](c2ccnc3ccc(F)cc32)CC1 [Example 73, (R)-2-((cis)-4-(6-fluoroquinolin-4-yl)cyclohexyl)-N-(3-phenoxyphenyl)propanamide]
23 | < 6.60 | C[C@@H](C(=O)Nc1ccccc1Oc1ccccc1)[C@H]1CC[C@@H](c2ccnc3ccc(F)cc32)CC1 [Example 73a, (R)-2-((cis)-4-(6-fluoroquinolin-4-yl)cyclohexyl)-N-(2-phenoxyphenyl)propanamide]
24 | > 6.60 | C[C@@H](C(=O)Nc1nccs1)[C@H]1CC[C@@H](c2ccnc3ccc(F)cc32)CC1 [Example 75, (R)-2-((cis)-4-(6-fluoroquinolin-4-yl)cyclohexyl)-N-(thiazol-2-yl)propanamide]
25 | > 7.30 | C[C@@H](C(=O)Nc1ccccc1F)[C@H]1CC[C@@H](c2ccnc3ccc(F)cc32)CC1 [Example 77, (R)-N-(2-fluorophenyl)-2-((cis)-4-(6-fluoroquinolin-4-yl)cyclohexyl)propanamide]
26 | > 6.60 | C[C@@H](C(=O)Nc1cccc(C#N)c1)[C@H]1CC[C@@H](c2ccnc3ccc(F)cc32)CC1 [Example 79, (R)-N-(3-cyanophenyl)-2-((cis)-4-(6-fluoroquinolin-4-yl)cyclohexyl)propanamide]
27 | < 6.60 | O=C(CN1CCC(Oc2ccc3nccc(Cl)c3c2)CC1)Nc1ccc(Cl)cc1 [Example 90, N-(4-Chlorophenyl)-2-(4-((4-chloroquinolin-6-yl)oxy)piperidin-1-yl)acetamide]
28 | > 7.30 | O=C(CC1CCN(Cc2ccnc3ccccc23)CC1)Nc1ccc(Cl)cc1 [Example 113, N-(4-Chlorophenyl)-2-(1-(quinolin-4-ylmethyl)piperidin-4-yl)acetamide]
29 | < 6.60 | O=C(CC1CCN(c2ccnc3ccc(F)cc23)CC1)Nc1ccc(F)cc1 [Example 115, N-(4-Fluorophenyl)-2-(1-(6-fluoroquinolin-4-yl)piperidin-4-yl)acetamide]
30 | < 6.60 | O=C(CC1CCN(c2ccnc3ccc(F)cc23)CC1)Nc1ccc(Cl)cc1 [Example 116]
31 | < 6.60 | CC1(CC(=O)Nc2ccc(F)cc2)CCN(c2ccnc3ccc(F)cc23)CC1 [Example 120, N-(4-Fluorophenyl)-2-(1-(6-fluoroquinolin-4-yl)-4-methylpiperidin-4-yl)acetamide]
32 | > 7.30 | CC1(CC(=O)Nc2ccc(Cl)cc2)CCN(c2ccnc3ccc(F)cc23)CC1 [Example 123]
33 | > 6.60 | CCOc1ccc(NC(=O)CC2(C)CCN(c3ccnc4ccc(F)cc34)CC2)cc1 [Example 125]
